Experiment [1] concerns the target cloned human κ opioid receptor (Homo sapiens, UniProt P41145). Nature of the experiment: biochemical. It counts as biochemical. The following applies: for times less potent than JDTic as a κ opioid receptor antagonist: ratio of κ Ke values vs JDTic.
The target of experiment [2] is cloned human δ opioid receptor (Homo sapiens, UniProt P41143). Nature of the experiment: biochemical.
In experiment [3] the test system is opioid receptors.
For experiment [4], the target named is cloned human μ opioid receptor (Homo sapiens, UniProt P35372). It counts as biochemical. The following applies: ratio of μ Ke values vs 3b.
Sequence of cloned human μ opioid receptor (P35372 whole entry): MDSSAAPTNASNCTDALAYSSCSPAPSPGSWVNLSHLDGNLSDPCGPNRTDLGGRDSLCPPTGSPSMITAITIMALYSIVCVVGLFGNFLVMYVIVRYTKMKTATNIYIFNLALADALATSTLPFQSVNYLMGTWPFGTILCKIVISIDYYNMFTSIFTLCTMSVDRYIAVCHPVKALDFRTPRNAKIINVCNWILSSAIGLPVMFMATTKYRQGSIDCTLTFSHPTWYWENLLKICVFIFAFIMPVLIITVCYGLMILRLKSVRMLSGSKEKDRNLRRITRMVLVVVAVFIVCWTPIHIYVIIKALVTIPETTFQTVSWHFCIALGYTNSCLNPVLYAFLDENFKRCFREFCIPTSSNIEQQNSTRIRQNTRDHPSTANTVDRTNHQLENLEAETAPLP

SMILES strings stand for the structures.

Sequence of cloned human κ opioid receptor (P41145 whole entry): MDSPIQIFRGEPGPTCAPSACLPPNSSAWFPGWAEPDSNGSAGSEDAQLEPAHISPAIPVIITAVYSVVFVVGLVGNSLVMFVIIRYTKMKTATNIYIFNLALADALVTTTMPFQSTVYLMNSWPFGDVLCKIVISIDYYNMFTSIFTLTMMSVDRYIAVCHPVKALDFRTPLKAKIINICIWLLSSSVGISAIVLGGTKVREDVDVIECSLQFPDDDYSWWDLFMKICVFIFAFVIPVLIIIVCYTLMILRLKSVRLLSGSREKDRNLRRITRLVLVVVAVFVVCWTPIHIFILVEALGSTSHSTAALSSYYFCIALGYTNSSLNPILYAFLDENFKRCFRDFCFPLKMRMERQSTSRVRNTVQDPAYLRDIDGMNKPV
Sequence of cloned human δ opioid receptor (P41143 whole entry): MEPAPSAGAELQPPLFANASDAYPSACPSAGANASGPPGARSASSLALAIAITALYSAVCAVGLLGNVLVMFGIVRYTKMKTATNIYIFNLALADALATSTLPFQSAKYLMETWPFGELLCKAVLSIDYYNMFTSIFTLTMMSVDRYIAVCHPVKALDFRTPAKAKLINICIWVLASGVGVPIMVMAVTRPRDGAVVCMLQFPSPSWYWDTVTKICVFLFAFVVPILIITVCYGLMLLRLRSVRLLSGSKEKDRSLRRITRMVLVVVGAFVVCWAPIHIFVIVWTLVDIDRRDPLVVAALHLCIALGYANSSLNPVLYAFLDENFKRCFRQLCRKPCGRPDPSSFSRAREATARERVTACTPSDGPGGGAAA

As to `CC(C)[C@@H](CN1CCC(C)(c2cccc(O)c2)CC1)NC(=O)[C@H]1Cc2ccc(O)cc2CN1` [Compound 4a, (3R)-7-Hydoxy-N-[(1S)-1-{[4-(3-hydroxyphenyl)-4-methylpiperidin-1-yl]methyl}-2-methylpropyl]-1,2,3,4-tetrahydroisoquinoline-3-carboxamide], in experiment [1], the “times less potent than JDTic as a κ opioid receptor antagonist” value (“times less potent than JDTic” for short) is listed as 35 fold. Further, in experiment [2], the Kb was found to be 927 ± 350 nM.

Take `CC(C)[C@@H](CN1CCC(C)(c2cccc(F)c2)CC1)NC(=O)[C@H]1Cc2ccc(O)cc2CN1` [Compound 4b, (3R)-N-[(1S)-1-{[4-(3-fluorophenyl)-4-methylpiperidin-1-yl]methyl}-2-methylpropyl]-7-hydroxy-1,2,3,4-tetrahydroisoquinoline-3-carboxamide]: in experiment [1], the “times less potent than JDTic” value was determined as 9 fold. For the same compound, the “functional profile in the [35S]GTPγS test” value in experiment [3] is given as “pure opioid antagonist”.

Turning to `CC[C@H](C)[C@@H](CN1CCC(C)(c2cccc(F)c2)CC1)NC(=O)[C@H]1Cc2ccc(O)cc2CN1` [Compound 4c, (3R)-N-[(1S,2S)-1-{[4-(3-Fluorophenyl)-4-methylpiperidin-1-yl]methyl}-2-methylbutyl]-7-hydroxy-1,2,3,4-tetrahydroisoquinoline-3-carboxamide], in experiment [1], the δ/κ is 27,363 and the μ/κ came out at 342. This compound returned a Kb in experiment [2] of 903 ± 200 nM.

Take `CC(C)[C@@H](CN1CCC(c2ccccc2)CC1)NC(=O)[C@H]1Cc2ccc(O)cc2CN1` [Compound 4e, (3R)-7-Hydroxy-N-{(1S)-2-methyl-1-[(4-phenylpiperidin-1-yl]methyl]propyl}-1,2,3,4-tetrahydroisoquinoline-3-carboxamide]: in experiment [1], the Kb was determined as 0.051 ± 0.01 nM and the “times less potent than JDTic” value is 2.6 fold. Besides, the “times less potent than 3a as a κ antagonist” value in experiment [1] (ratio of κ Ke values vs 3a) is 2 fold. The same compound returned a Kb in experiment [2] of 281 ± 44 nM.

For `CC(C)[C@@H](CN1CCC(c2cccc(F)c2)CC1)NC(=O)[C@H]1Cc2ccc(O)cc2CN1` [Compound 4f, (3R)-N-[(1S)-1-{[4-(3-Fluorophenyl)piperidin-1-yl]methyl}-2-methylpropyl]-7-hydroxy-1,2,3,4-tetrahydroisoquinoline-3-carboxamide], in experiment [4], the “times more potent as a μ antagonist than 3b” value amounted to 4 fold.

Values taken from article PMC4582009 (Bioorganic & medicinal chemistry, 2015).
